Experiment: Titration of polyelectrolytes and ICs with MG (zeta potential, Dh, I/c)
Assay type: physicochemical
Conditions: titration of PAA-b-PEO, PArg and ICs with MG, 10 mM NaCl
Procedure: Dynamic (DLS) and static (SLS) light scattering measurements were performed with Brookhaven Instruments, 488 nm and 633 nm, 15 W Ion Laser System, equipped with Avalanche Photodiode Detector; DLS measurements were conducted at 90° detection angle. The light scattering titrations were performed with Malvern Zetasizer equipped with auto-titrator, at detection angle of 173°. Samples from loading experiments were analyzed with Shimadzu UV spectrophotometer (UV-3600).
MG was loaded into the ICs by simple mixing the respective solutions at predetermined ratios. FIG. 3 presents the results of titrations of the polyelectrolytes and ICs consisting of these polyelectrolytes with MG. Upon mixing, we observed no change in zeta potential except for slight increase in case of PArg at the beginning of titration. […] We observed small changes in hydrodynamic diameter (DO and normalized scattering intensity (I/c) of the aggregates, indicating bonding. This was later confirmed with NR studies.

chargeability of MG (zeta potential upon mixing): not chargeable
SMILES: COc1ccc(O[C@@H]2O[C@H](CO)[C@@H](O)[C@H](O)[C@H]2O)cc1 [MG, 4-methoxyphenyl β-D-glucopyranoside]
